According to patent US20250388593A1 (MITSUBISHI TANABE PHARMA CORPORATION, priority 2023, published 2025):
pKd: −log10 of the molar value.

What follows are molecules tested against CRBN truncate (318-426) (Homo sapiens (Human), UniProt Q96SW2) (assay: Measurement of molecular interactions using surface plasmon resonance (SPR), Biacore T200). Conditions: 25° C., immobilized CRBN truncate, upper limit of measurement 200 μM.
Assay type: binding
How it was run: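 Compound injections used 60 s association and 120 s dissociation in HEPES pH 7.5 buffer (150 mM NaCl, 1 mM TCEP, 0.005% Tween 20, 2% DMSO). The ligand was CRBN truncate 318-426 bearing a C-terminal Avi-tag, immobilised via streptavidin on an SA sensor chip.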

Sequence of CRBN truncate (318-426) (Q96SW2 318-426): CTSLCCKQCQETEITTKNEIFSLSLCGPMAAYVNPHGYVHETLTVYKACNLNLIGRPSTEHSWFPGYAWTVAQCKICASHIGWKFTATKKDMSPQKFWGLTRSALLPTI

SMILES	pKd
CC(C)(C)OC(=O)NCCCCCCCCn1ccc2c(N3CCC4(CCCC(=O)NC4=O)C3)ncnc21 (stereo not drawn) [Example 186, tert-Butyl N-[8-[4-(6,8-dioxo-2,7-diazaspiro[4.6]undecan-2-yl)pyrrolo[2,3-d]pyrimidin-7-yl]octyl]carbamate]	4.00 to 4.30
COc1ccc2nc(N3CCC4(CCCC(=O)NC4=O)C3)sc2c1 (stereo not drawn) [Example 187, 2-(6-Methoxy-1,3-benzothiazol-2-yl)-2,7-diazaspiro[4.6]undecane-6,8-dione]	4.00 to 4.30
COc1ccc2sc(N3CCC4(CCCC(=O)NC4=O)C3)nc2c1 (stereo not drawn) [Example 188, 2-(5-Methoxy-1,3-benzothiazol-2-yl)-2,7-diazaspiro[4.6]undecane-6,8-dione]	≤ 4.00
COc1cccc2sc(N3CCC4(CCCC(=O)NC4=O)C3)nc12 (stereo not drawn) [Example 189, 2-(4-Methoxy-1,3-benzothiazol-2-yl)-2,7-diazaspiro[4.6]undecane-6,8-dione]	≤ 4.00
CC(C)(C)OC(=O)N1CCc2c(ncnc2N2CCC3(CCCC(=O)NC3=O)C2)C1 (stereo not drawn) [Example 190, tert-Butyl 4-(6,8-dioxo-2,7-diazaspiro[4.6]undecan-2-yl)-6,8-dihydro-5H-pyrido[3,4-d]pyrimidine-7-carboxylate]	≤ 4.00
N#Cc1ccccc1N1CCC2(CCCC(=O)NC2=O)C1 (stereo not drawn) [Example 191]	≤ 4.00
CC(C)(C)OC(=O)CCCCCCCn1c(=O)n(C2CCCC(=O)NC2=O)c2ccccc21 (stereo not drawn) [Example 195, tert-Butyl 8-[3-(2,7-dioxoazepan-3-yl)-2-oxobenzimidazol-1-yl]octanoate]	> 4.30
CC(C)(C)OC(=O)NCCCn1c(=O)n(C2CCCC(=O)NC2=O)c2ccccc21 (stereo not drawn) [Example 196, tert-Butyl N-[3-[3-(2,7-dioxoazepan-3-yl)-2-oxobenzimidazol-1-yl]propyl]carbamate]	> 4.30
CC(C)(C)OC(=O)NCCn1c(=O)n(C2CCCC(=O)NC2=O)c2ccccc21 (stereo not drawn) [Example 197, tert-Butyl N-[2-[3-(2,7-dioxoazepan-3-yl)-2-oxobenzimidazol-1-yl]ethyl]carbamate]	≤ 4.00
CC(C)(C)OC(=O)NCCCCCCCn1c(=O)n(C2CCCC(=O)NC2=O)c2ccccc21 (stereo not drawn) [Example 198, tert-Butyl N-[7-[3-(2,7-dioxoazepan-3-yl)-2-oxobenzimidazol-1-yl]heptyl] carbamate]	> 4.30
CC(C)(C)OC(=O)NCCOCCOCCn1c(=O)n(C2CCCC(=O)NC2=O)c2ccccc21 (stereo not drawn) [Example 199, tert-Butyl N-[2-[2-[2-[3-(2,7-dioxoazepan-3-yl)-2-oxobenzimidazol-1-yl]ethoxy]ethoxy]ethyl]carbamate]	≤ 4.00
CC(C)(C)OC(=O)NCCCCCCCn1c(=O)n(C2CCCC(=O)NC2=O)c2ncccc21 (stereo not drawn) [Example 201-2]	≤ 4.00
Cc1ccc(NC(=O)NCCCn2c(=O)n(C3CCCC(=O)NC3=O)c3ccccc32)cc1Cl (stereo not drawn) [Example 202, 1-(3-Chloro-4-methylphenyl)-3-[3-[3-(2,7-dioxoazepan-3-yl)-2-oxobenzimidazol-1-yl]propyl]urea]	≤ 4.00
Cn1c(=O)n(C2CCCC(=O)NC2=O)c2cccc(C#CCCCCCC(=O)OC(C)(C)C)c21 (stereo not drawn) [Example 206, tert-Butyl 8-[1-(2,7-dioxoazepan-3-yl)-3-methyl-2-oxobenzimidazol-4-yl]oct-7-ynoate]	> 4.30
O=C(O)CCCCCCCc1nn(C2CCCC(=O)NC2=O)c2ccccc12 (stereo not drawn) [Example 209, 8-[1-(2,7-Dioxoazepan-3-yl)indazol-3-yl]octanoic acid]	≤ 4.00
Cn1c(=O)n(C2CCCC(=O)NC2=O)c2cccc(I)c21 (stereo not drawn) [Example 210, 3-(4-Iodo-3-methyl-2-oxobenzimidazol-1-yl) azepane-2,7-dione]	4.00 to 4.30
Cn1c(=O)n(C2CCCC(=O)NC2=O)c2cccc(CCCCC(=O)OC(C)(C)C)c21 (stereo not drawn) [Example 214, tert-Butyl 5-[1-(2,7-dioxoazepan-3-yl)-3-methyl-2-oxobenzimidazol-4-yl]pentanoate]	4.00 to 4.30
Cn1c(=O)n(C2CCCC(=O)NC2=O)c2ccc(C3CCN(C(=O)OC(C)(C)C)CC3)cc21 (stereo not drawn) [Example 218, tert-Butyl 4-[1-(2,7-dioxoazepan-3-yl)-3-methyl-2-oxobenzimidazol-5-yl]piperidine-1-carboxylate]	4.00 to 4.30
Cn1c(=O)n(C2CCCC(=O)NC2=O)c2ccc(C3CCN(CC(=O)OC(C)(C)C)CC3)cc21 (stereo not drawn) [Example 219, tert-Butyl 2-[4-[1-(2,7-dioxoazepan-3-yl)-3-methyl-2-oxobenzimidazol-5-yl]piperidin-1-yl]acetate]	> 4.30
Cn1c(=O)n(C2CCCC(=O)NC2=O)c2cccc(C3=CCN(C(=O)OC(C)(C)C)CC3)c21 (stereo not drawn) [Example 220, tert-Butyl 4-[1-(2,7-dioxoazepan-3-yl)-3-methyl-2-oxobenzimidazol-4-yl]-3,6-dihydro-2H-pyridine-1-carboxylate]	4.00 to 4.30

SMILES	pKd
Cn1c(=O)n(C2CCCC(=O)NC2=O)c2cccc(-c3ccncc3)c21 (stereo not drawn) [Example 221, 3-[3-Methyl-2-oxo-4-(4-pyridyl)benzimidazol-1-yl]azepane-2,7-dione]	4.00 to 4.30
Cn1c(=O)n(C2CCCC(=O)NC2=O)c2cccc(C3=CCN(CC(=O)OC(C)(C)C)CC3)c21 (stereo not drawn) [Example 222, tert-Butyl 2-[4-[1-(2,7-dioxoazepan-3-yl)-3-methyl-2-oxobenzimidazol-4-yl]-3,6-dihydro-2H-pyridin-1-yl]acetate]	4.00 to 4.30
CC(C)(C)OC(=O)c1ccc(N2CC[C@]3(CCCC(=O)NC3=O)CC2=O)cc1 [Example 223, tert-Butyl 4-(4,7,9-trioxo-3,8-diazaspiro [5.6]dodecan-3-yl) benzoate]	> 4.30
CC(C)(C)OC(=O)c1ccc(N2CC[C@@]3(CCCC(=O)NC3=O)CC2=O)cc1 [Example 224, tert-Butyl 4-(4,7,9-trioxo-3,8-diazaspiro [5.6]dodecan-3-yl) benzoate]	≤ 4.00
O=C1CCCC2(CCN(c3ccc([N+](=O)[O-])cc3)C(=O)C2)C(=O)N1 (stereo not drawn) [Example 225, 3-(4-Nitrophenyl)-3,8-diazaspiro [5.6]dodecane-4,7,9-trione]	≤ 4.00
CC(C)(C)OC(=O)CCCCCN1CC2(CC(=O)N(C3CCC(=O)NC3=O)C2=O)C1 (stereo not drawn) [Example 229, tert-Butyl 6-[6-(2,6-dioxopiperidin-3-yl)-5,7-dioxo-2,6-diazaspiro[3.4]octan-2-yl]hexanoate]	≤ 4.00
Nc1nccc(N2CC3(CC(=O)N(C4CCC(=O)NC4=O)C3=O)C2)n1 (stereo not drawn) [Example 230, 2-(2-Aminopyrimidin-4-yl)-6-(2,6-dioxopiperidin-3-yl)-2,6-diazaspiro[3.4]octane-5,7-dione]	≤ 4.00
CC(C)(C)OC(=O)c1ccc2nc(N3CC4(CC(=O)N(C5CCC(=O)NC5=O)C4=O)C3)sc2c1 (stereo not drawn) [Example 231, tert-Butyl 2-[6-(2,6-dioxopiperidin-3-yl)-5,7-dioxo-2,6-diazaspiro[3.4]octan-2-yl]-1,3-benzothiazole-6-carboxylate]	> 4.30
O=C1CCC(N2C(=O)CC3(CN(c4ccc([N+](=O)[O-])cc4)C3)C2=O)C(=O)N1 (stereo not drawn) [Example 232, 6-(2,6-Dioxopiperidin-3-yl)-2-(4-nitrophenyl)-2,6-diazaspiro[3.4]octane-5,7-dione]	4.00 to 4.30
CC(C)(C)OC(=O)NCCCNc1nccc(N2CC3(CC(=O)N(C4CCC(=O)NC4=O)C3=O)C2)n1 (stereo not drawn) [Example 233]	≤ 4.00
CC(C)(C)OC(=O)COc1cnc(N2CC3(CC(=O)N(C4CCC(=O)NC4=O)C3=O)C2)nc1 (stereo not drawn) [Example 234]	≤ 4.00
Cn1ccc2c(N3CC4(CC(=O)N(C5CCC(=O)NC5=O)C4=O)C3)ncnc21 (stereo not drawn) [Example 235, 6-(2,6-Dioxopiperidin-3-yl)-2-(7-methylpyrrolo[2,3-d]pyrimidin-4-yl)-2,6-diazaspiro[3.4]octane-5,7-dione]	≤ 4.00
CC(C)(C)OC(=O)NCCCCCCCCn1ccc2c(N3CC4(CC(=O)N(C5CCC(=O)NC5=O)C4=O)C3)ncnc21 (stereo not drawn) [Example 236, tert-Butyl N-[8-[4-[6-(2,6-dioxopiperidin-3-yl)-5,7-dioxo-2,6-diazaspiro[3.4]octan-2-yl]pyrrolo[2,3-d]pyrimidin-7-yl]octyl]carbamate]	> 4.30
CC(C)(C)OC(=O)N1CCC(Oc2ccc(CN3CC4(CC(=O)N(C5CCC(=O)NC5=O)C4=O)C3)cc2)CC1 (stereo not drawn) [Example 237, tert-Butyl 4-[4-[[6-(2,6-dioxopiperidin-3-yl)-5,7-dioxo-2,6-diazaspiro[3.4]octan-2-yl]methyl]phenoxy]piperidine-1-carboxylate]	≤ 4.00
COc1ccc2nc(N3CC4(CC(=O)N(C5CCC(=O)NC5=O)C4=O)C3)sc2c1 (stereo not drawn) [Example 238, 6-(2,6-Dioxopiperidin-3-yl)-2-(6-methoxy-1,3-benzothiazol-2-yl)-2,6-diazaspiro[3.4]octane-5,7-dione]	> 4.30
COc1ccc2sc(N3CC4(CC(=O)N(C5CCC(=O)NC5=O)C4=O)C3)nc2c1 (stereo not drawn) [Example 239, 6-(2,6-Dioxopiperidin-3-yl)-2-(5-methoxy-1,3-benzothiazol-2-yl)-2,6-diazaspiro[3.4]octane-5,7-dione]	> 4.30
COc1cccc2sc(N3CC4(CC(=O)N(C5CCC(=O)NC5=O)C4=O)C3)nc12 (stereo not drawn) [Example 240, 6-(2,6-Dioxopiperidin-3-yl)-2-(4-methoxy-1,3-benzothiazol-2-yl)-2,6-diazaspiro[3.4]octane-5,7-dione]	≤ 4.00
CC(C)(C)OC(=O)NCCCCCOc1ccc2nc(N3CC4(CC(=O)N(C5CCC(=O)NC5=O)C4=O)C3)sc2c1 (stereo not drawn) [Example 241, tert-Butyl N-[5-[[2-[6-(2,6-dioxopiperidin-3-yl)-5,7-dioxo-2,6-diazaspiro[3.4]octan-2-yl]-1,3-benzothiazol-6-yl]oxy]pentyl]carbamate]	≤ 4.00
CC(C)(C)OC(=O)N1CCc2c(ncnc2N2CC3(CC(=O)N(C4CCC(=O)NC4=O)C3=O)C2)C1 (stereo not drawn) [Example 242, tert-Butyl 4-[6-(2,6-dioxo-3-piperidyl)-5,7-dioxo-2,6-diazaspiro[3.4]octan-2-yl]-6,8-dihydro-5H-pyrido[3,4-d]pyrimidine-7-carboxylate]	≤ 4.00
